Measurements reported in patent US8415359B2, “Phenylpyrrole derivative” (Daiichi Sankyo Company, Limited, priority 2008, dated 2013).

molecular target: T1, human pancreatic GK (human glucokinase variant 1, GST-fused protein) (Homo sapiens, UniProt P35557); experiment: GK activity test (GK activation rate); type: biochemical; details: test compound 1 μM; glucose 5 mM; 30 min at room temperature; absorbance at 340 nm with test compound / without test compound
T1 construct: made in house; host or cells: Escherichia coli (such as BL21 or JM109)
T1 sequence (P35557 1-465): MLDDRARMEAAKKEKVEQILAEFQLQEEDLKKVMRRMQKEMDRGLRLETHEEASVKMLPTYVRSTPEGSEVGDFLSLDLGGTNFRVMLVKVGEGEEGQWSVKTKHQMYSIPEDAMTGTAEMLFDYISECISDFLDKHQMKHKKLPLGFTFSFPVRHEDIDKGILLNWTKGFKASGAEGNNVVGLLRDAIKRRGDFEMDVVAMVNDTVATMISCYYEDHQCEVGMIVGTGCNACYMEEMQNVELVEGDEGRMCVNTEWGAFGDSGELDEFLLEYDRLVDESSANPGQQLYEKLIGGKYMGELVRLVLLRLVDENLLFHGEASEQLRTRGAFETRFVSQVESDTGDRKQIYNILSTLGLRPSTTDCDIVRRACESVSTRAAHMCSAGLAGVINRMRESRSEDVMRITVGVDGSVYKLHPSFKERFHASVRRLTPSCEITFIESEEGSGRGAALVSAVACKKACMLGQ
Protocol: cDNA encoding human pancreatic GK polypeptide (GenBank Accession No. NM_000162, human glucokinase variant 1) was cloned from a human cDNA library by polymerase chain reaction (PCR), and introduced into a glutathione S-transferase (GST)-fused protein expression vector (GEX4T, GE Healthcare Bioscience). The vector was introduced into Escherichia coli (such as BL21 or JM109, Invitrogen), and the transformed E. coli was cultured overnight at 37° C. followed by recovery of the cells. After freezing and thawing the recovered cells, the cells were suspended in phosphate buffer containing Triton-X at a final concentration of 1% followed by disrupting the cells with an ultrasonic homogenizer. The supernatant obtained by low-speed centrifugation treatment of the homogenate (10,000×g, 30 minutes) was further subjected to high-speed centrifugation (100,000×g, 10 minutes) followed by recovering the supernatant and purifying the fused protein using a GST fused protein purification system (Bulk GST Purification Module, GE Healthcare Bioscience). The GK fused protein was divided into smaller aliquots and stored at −80° C.
GK activity was measured using the GK purified in (1) above. More specifically, an enzyme solution was prepared by adding the purified GK of (1) above and glucose-6-phosphate dehydrogenase (Sigma) to solution 1 of a glucose assay kit (D-Glucose UV Method, Roche Diagnostics). The enzyme solution, a test compound diluent and glucose (final concentration: 5 mM) were mixed in a 96-well ELISA plate, and allowed to react for 30 minutes at room temperature. Following completion of the reaction, absorbance at a wavelength of 340 nm was measured using SpectraMax Plus (Molecular Probe). Furthermore, unreacted (when glucose was not added) absorbance was used for the background.
GK activation rates were indicated with values represented by the following numerical formula: (absorbance after reacting for 30 minutes when test compound added)/(absorbance after reacting for 30 minutes when test compound not added).

GK Activation Rate | Compound
2.1 | COC[C@H](C)Oc1cc(Oc2ccc(S(C)(=O)=O)cc2)cc(-c2ccc(C3=NC[C@H](CO)O3)[nH]2)c1 [Example 35, [(5R)-2-(5-{3-[(1S)-2-Methoxy-1-methylethoxy]-5-[4-(methylsulfonyl)phenoxy]phenyl}-1H-pyrrol-2-yl)-4,5-dihydro-1,3-oxazol-5-yl]methanol]
2.1 | COC[C@H](C)Oc1cc(Oc2ccc(C(=O)N3CCC3)cc2F)cc(-c2ccc(-c3nccs3)[nH]2)c1 [Example 41, 2-(5-{3-[4-(Azetidin-1-ylcarbonyl)-2-fluorophenoxy]-5-[(1S)-2-methoxy-1-methylethoxy]phenyl}-1H-pyrrol-2-yl)-1,3-thiazole]
2.0 | COC[C@H](C)Oc1cc(Oc2ccc(C(=O)N3CCCC3)cc2F)cc(-c2ccc(-c3nccs3)[nH]2)c1 [Example 47, 2-(5-{3-[2-Fluoro-4-(pyrrolidin-1-ylcarbonyl)phenoxy]-5-[(1S)-2-methoxy-1-methylethoxy]phenyl}-1H-pyrrol-2-yl)-1,3-thiazole]
2.0 | COC[C@H](C)Oc1cc(Oc2ncc(C(=O)N3CCC3)cc2Cl)cc(-c2ccc(-c3nccs3)[nH]2)c1 [Example 60, 5-(Azetidin-1-ylcarbonyl)-3-chloro-2-{3-[(1S)-2-methoxy-1-methylethoxy]-5-[5-(1,3-thiazol-2-yl)-1,1-pyrrol-2-yl]phenoxy}pyridine]
1.9 | COC[C@H](C)Oc1cc(Oc2cnc(C(=O)N3CCN(C)CC3)cn2)cc(-c2ccc(-c3nccs3)[nH]2)c1 [Example 64, 2-{3-[(1S)-2-Methoxy-1-methylethoxy]-5-[5-(1,3-thiazol-2-yl)-1H-pyrrol-2-yl]phenoxy}-5-[(4-methylpiperazin-1-yl)carbonyl]pyrazine]
2.4 | COC[C@H](C)Oc1cc(Oc2ccc(S(C)(=O)=O)nc2)cc(-c2ccc(-c3nccs3)[nH]2)c1 [Example 65, 5-{3-[(1S)-2-Methoxy-1-methylethoxy]-5-[5-(1,3-thiazol-2-yl)-1H-pyrrol-2-yl]phenoxy}-2-(methylsulfonyl)pyridine]
1.7 | Cc1nnc(-c2ccc(-c3cc(Oc4ccc(C(=O)N5CCC5)cc4F)cc(O[C@@H](C)CO)c3)[nH]2)o1 [Example 67, (2S)-2-{3-[4-(Azetidin-1-ylcarbonyl)-2-fluorophenoxy]-5-[5-(5-methyl-1,3,4-oxadiazol-2-yl)-1H-pyrrol-2-yl]phenoxy}propan-1-ol]
2.0 | COC[C@H](C)Oc1cc(Oc2ccc(C(=O)N3CCC3)cc2F)cc(-c2ccc(C3=NCCO3)[nH]2)c1 [Example 68, 2-(5-{3-[4-(Azetidin-1-ylcarbonyl)-2-fluorophenoxy]-5-[(1S)-2-methoxy-1-methylethoxy]phenyl}-1H-pyrrol-2-yl)-4,5-dihydro-1,3-oxazole]
1.9 | C[C@H]1CN=C(c2ccc(-c3cc(Oc4ccc(C(=O)N5CCC5)cc4F)cc(O[C@@H](C)CO)c3)[nH]2)O1 [Example 70, (2S)-2-(3-[4-(Azetidin-1-ylcarbonyl)-2-fluorophenoxy]-5-{5-[(5S)-5-methyl-4,5-dihydro-1,3-oxazol-2-yl}-1H-pyrrol-2-yl]phenoxy)propan-1-ol]
2.0 | COC[C@H](C)Oc1cc(Oc2ncc(C(=O)N3CCC3)cc2Cl)cc(-c2ccc(C3=NCCO3)[nH]2)c1 [Example 73, 5-(Azetidin-1-ylcarbonyl)-3-chloro-2-{3-[5-(4,5-dihydro-1,3-oxazol-2-yl)-1,4-pyrrol-2-yl]-5-[(1S)-2-methoxy-1-methylethoxy]phenoxyl}pyridine]
2.0 | COC[C@H](C)Oc1cc(Oc2ncc(C(=O)N3CCC3)cc2Cl)cc(-c2ccc(C3=NC[C@H](C)O3)[nH]2)c1 [Example 74, 5-(Azetidin-1-ylcarbonyl)-3-chloro-2-(3-[(1S)-2-methoxy-1-methylethoxy]-5-{5-[(5S)-5-methyl-4,5-dihydro-1,3-oxazol-2-yl]-1H-pyrrol-2-yl}phenoxy)pyridine]
1.8 | C[C@H]1CN=C(c2ccc(-c3cc(Oc4ncc(C(=O)N5CCC5)cc4Cl)cc(O[C@@H](C)CO)c3)[nH]2)O1 [Example 75, (2S)-2-(3-{[5-(Azetidin-1-ylcarbonyl)-3-chloropyridin-2-yl]oxy}-5-{5-[(5S)-5-methyl-4,5-dihydro-1,3-oxazol-2-yl]-1H-pyrrol-2-yl}phenoxy)propan-1-ol]
3.0 | COC[C@H](C)Oc1cc(Oc2ccc(S(C)(=O)=O)nc2)cc(-c2ccc(C3=NC[C@H](C)O3)[nH]2)c1 [Example 76, 5-(3-[(1S)-2-Methoxy-1-methylethoxy]-5-{5-[(5S)-5-methyl-4,5-dihydro-1,3-oxazol-2-yl]-1,4-pyrrol-2-yl}phenoxy)-2-(methylsulfonyl)pyridine]
2.6 | C[C@H]1CN=C(c2ccc(-c3cc(Oc4ccc(S(C)(=O)=O)nc4)cc(O[C@@H](C)CO)c3)[nH]2)O1 [Example 77, (2S)-2-(3-{5-[(5S)-5-Methyl-4,5-dihydro-1,3-oxazol-2-yl]-1H-pyrrol-2-yl}-5-{[6-(methylsulfonyl)pyridin-3-yl]oxy}phenoxy)propan-1-ol]
2.2 | Cc1nnc(-c2ccc(-c3cc(Oc4ccc(S(C)(=O)=O)nc4)cc(O[C@@H](C)CO)c3)[nH]2)o1 [Example 81, (2S)-2-(3-[5-(5-Methyl-1,3,4-oxadiazol-2-yl)-1H-pyrrol-2-yl]-5-{[6-(methylsulfonyl)pyridin-3-yl]oxy}phenoxy)propan-1-ol]
2.7 | COC[C@H](C)Oc1cc(Oc2ccc(S(C)(=O)=O)nc2)cc(-c2ccc(C3=NC[C@H](CO)O3)[nH]2)c1 [Example 82, {(5R)-2-[5-(3-[(1S)-2-Methoxy-1-methylethoxy]-5-{[6-(methylsulfonyl)pyridin-3-yl]oxy}phenyl)-1H-pyrrol-2-yl]-4,5-dihydro-1,3-oxazol-5-yl}methanol]
2.7 | C[C@@H]1COC(c2ccc(-c3cc(Oc4ccc(S(C)(=O)=O)nc4)cc(O[C@@H](C)CO)c3)[nH]2)=N1 [Example 84, (2S)-2-(3-{5-[(4R)-4-Methyl-4,5-dihydro-1,3-oxazol-2-yl]-1H-pyrrol-2-yl}-5-{-[6-(methylsulfonyl)pyridin-3-yl]oxy}phenoxy)propan-1-ol]
2.9 | CC[C@@H]1COC(c2ccc(-c3cc(Oc4ccc(S(C)(=O)=O)nc4)cc(O[C@@H](C)CO)c3)[nH]2)=N1 [Example 85, (2S)-2-(3-{5-[(4R)-4-Ethyl-4,5-dihydro-1,3-oxazol-2-yl]-1H-pyrrol-2-yl}-5-{[6-(methylsulfonyl)pyridin-3-yl]oxy}phenoxy)propan-1-ol]
2.5 | COC[C@H](C)Oc1cc(Oc2ccc(S(C)(=O)=O)nc2)cc(-c2ccc(C3=N[C@H](CO)CO3)[nH]2)c1 [Example 86, {(4R)-2-[5-(3-[(1S)-2-Methoxy-1-methylethoxy]-5-{[6-(methylsulfonyl)pyridin-3-yl]oxy}phenyl)-1H-pyrrol-2-yl]-4,5-dihydro-1,3-oxazol-4-yl}methanol]
2.4 | C[C@@H]1OC(c2ccc(-c3cc(Oc4ccc(S(C)(=O)=O)nc4)cc(O[C@@H](C)CO)c3)[nH]2)=N[C@@H]1C [Example 88, (2S)-2-(3-{5-[(4R,5S)-4,5-Dimethyl-4,5-dihydro-1,3-oxazol-2-yl]-1H-pyrrol-2-yl}-5-{[6-(methylsulfonyl)pyridin-3-yl]oxy}phenoxy)propan-1-ol]
